Measured values published in US20130295145A1, “TOPICAL PHARMACEUTICAL COMPOSITIONS COMPRISING ETODOLAC” (CADILA HEALTHCARE LIMITED, priority 2010, published 2013).

Experiment: Stability study on nanogel composition of Example 1 (storage at 40° C. and 75% relative humidity)
Assay type: physicochemical
Details: for % Drug in the formulation, 1 Month / % Drug in the formulation, 2 Month / % Drug in the formulation, 3 Month: 40° C. and 75% relative humidity; for % Drug in the formulation, 2 Month: 2 months; for % Drug in the formulation, 3 Month: 3 months
From the text: Stability Study on Nanogel Composition of Example 1

[1] = nanogel Formulation 1 of Example 1
[2] = nanogel Formulation 2 of Example 1

| % Drug in the formulation, 1 Month [1] | % Drug in the formulation, 2 Month [1] | % Drug in the formulation, 3 Month [1] | % Drug in the formulation, Initial [1] | % Drug in the formulation, 1 Month [2] | % Drug in the formulation, 2 Month [2] | % Drug in the formulation, 3 Month [2] | % Drug in the formulation, Initial [2] | SMILES |
| --- | --- | --- | --- | --- | --- | --- | --- | --- |
| 99.5% | 97.7% | 95.9% | 101.6% | 97.6% | 103.0% | 102.3% | 100.4% | CCc1cccc2c3c([nH]c12)C(CC)(CC(=O)O)OCC3 (racemic) [Etodolac, (RS)-2-(1,8-Diethyl-4,9-dihydro-3H-pyrano[3,4-b]indol-1-yl)acetic acid] |
| 100.9% | 95.2% | 93.2% | 97.3% | 101.2% | 97.7% | 97.2% | 100.2% | COC(=O)c1ccccc1O [Methyl salicylate] |
